The source of these data is patent US9050345B2, “Pyrrolotriazines as potassium ion channel inhibitors” (BRISTOL-MYERS SQUIBB COMPANY, priority 2013, dated 2015).

T1 sequence (P22460 whole entry): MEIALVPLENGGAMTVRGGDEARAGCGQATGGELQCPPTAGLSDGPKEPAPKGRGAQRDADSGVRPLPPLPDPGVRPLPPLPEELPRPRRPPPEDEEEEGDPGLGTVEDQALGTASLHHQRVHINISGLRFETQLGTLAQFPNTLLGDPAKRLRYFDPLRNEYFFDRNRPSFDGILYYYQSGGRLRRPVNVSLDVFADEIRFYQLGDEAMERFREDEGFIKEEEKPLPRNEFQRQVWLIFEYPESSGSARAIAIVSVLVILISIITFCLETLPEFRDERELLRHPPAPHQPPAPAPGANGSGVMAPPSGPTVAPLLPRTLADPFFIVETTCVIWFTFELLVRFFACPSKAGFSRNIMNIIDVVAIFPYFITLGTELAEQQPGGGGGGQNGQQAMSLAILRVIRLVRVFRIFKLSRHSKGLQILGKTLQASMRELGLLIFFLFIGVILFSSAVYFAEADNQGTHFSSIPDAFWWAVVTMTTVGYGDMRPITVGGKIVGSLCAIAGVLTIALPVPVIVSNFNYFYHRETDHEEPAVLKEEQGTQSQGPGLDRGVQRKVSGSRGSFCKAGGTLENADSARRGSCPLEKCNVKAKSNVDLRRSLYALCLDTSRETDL

One test has as its target T1, human KV 1.5 (IKur) (Homo sapiens, UniProt P22460).
T1 construct: expressed in transfected cells
Description: block of IKur current in patch clamped L-929 cells expressing human Kv1.5. Type of test: cell-based. The following applies: 0.3 μM; patch clamped mammalian L-929 cells stably expressing human Kv1.5.
Consider `NS(=O)(=O)c1cncc(-c2nc(NC3CCCc4cccnc43)c3c(-c4ccccc4)ccn3n2)c1` (stereo not drawn) [Example 171, 5-(5-phenyl-4-((5,6,7,8-tetrahydroquinolin-8-yl)amino)pyrrolo[2,1-f] [1,2,4]triazin-2-yl)pyridine-3-sulfonamide], for which the “KV1_5% Inh L929 @0.3 μM” value stood at 97.64%.

The test is the same for the next values; noted with them: L929, 0.3 μM; patch clamped mammalian L-929 cells stably expressing human Kv1.5; read-out: KV1_5% Inh L929 @0.3 μM.
As for `COc1ncc(-c2nc(NCc3ccccn3)c3c(-c4ccccc4)ccn3n2)cc1S(N)(=O)=O` [Example 147, 2-methoxy-5-(5-phenyl-4-(pyridin-2-ylmethylamino)pyrrolo[1,2-f][1,2,4]triazin-2-yl)pyridine-3-sulfonamide], the inhibition at 0.3 µM was determined as 97.3%.

With `NS(=O)(=O)c1cncc(-c2nc(NCc3ccccn3)c3c(-c4cccnc4)ccn3n2)c1` [Example 148, 5-(4-(pyridin-2-ylmethylamino)-5-(pyridin-3-yl)pyrrolo [1,2-f][1,2,4]triazin-2-yl)pyridine-3-sulfonamide], the inhibition at 0.3 µM was determined as 84.8%. Still for that read-out and setting: with `NS(=O)(=O)c1cccc(-c2nc(NCc3ccccc3)c3c(-c4ccccc4)ccn3n2)c1` [Example 149, 3-(4-(benzylamino)-5-phenylpyrrolo[1,2-f] [1,2,4]triazin-2-yl)benzenesulfonamide] the figure was 95.8%; with `NS(=O)(=O)c1cccc(-c2nc(NCc3ccccn3)c3c(-c4ccccc4)ccn3n2)c1` [Example 150, 3-(5-phenyl-4-(pyridin-2-ylmethylamino)pyrrolo [1,2-f][1,2,4]triazin-2-yl)benzenesulfonamide], 97.5%; with `Oc1ccc(-c2nc(NCc3ccccn3)c3c(-c4ccccc4)ccn3n2)cn1` [Example 151, 5-(5-phenyl-4-((pyridin-2-ylmethyl)amino)pyrrolo [2,1-f][1,2,4]triazin-2-yl)pyridin-2-ol], 94.2%. Regarding `NS(=O)(=O)c1cncc(-c2nc(NCc3ncccn3)c3c(-c4ccccc4)ccn3n2)c1` [Example 152, 5-(5-phenyl-4-((pyrimidin-2-ylmethyl)amino)pyrrolo[2,1-f][1,2,4]triazin-2-yl)pyridine-3-sulfonamide], the inhibition at 0.3 µM came to 97.3%.

`NS(=O)(=O)c1cnc(O)c(-c2nc(NCc3ccccn3)c3c(-c4ccccc4)ccn3n2)c1` [Example 153, 6-hydroxy-5-(5-phenyl-4-((pyridin-2-ylmethyl)amino)pyrrolo [2,1-f][1,2,4]triazin-2-yl)pyridine-3-sulfonamide]: the inhibition at 0.3 µM worked out at 79.9%. For `NS(=O)(=O)c1cncc(-c2nc(NCc3cnccn3)c3c(-c4ccccc4)ccn3n2)n1` [Example 154, 6-(5-phenyl-4-((pyrazin-2-ylmethyl)amino)pyrrolo [2,1-f][1,2,4]triazin-2-yl)pyrazine-2-sulfonamide], the inhibition at 0.3 µM worked out at 89.5%. Turning to `NS(=O)(=O)c1cncc(-c2nc(NCCN3CCOCC3)c3c(-c4ccccc4)ccn3n2)c1` [Example 155, 5-(4-((2-morpholinoethyl)amino)-5-phenylpyrrolo [2,1-f][1,2,4]triazin-2-yl)pyridine-3-sulfonamide], the inhibition at 0.3 µM was 30.2%. Regarding `NS(=O)(=O)c1cncc(-c2nc(NCc3cnccn3)c3c(-c4ccccc4F)ccn3n2)c1` [Example 156, 5-(5-(2-fluorophenyl)-4-((pyrazin-2-ylmethyl)amino)pyrrolo [2,1-f][1,2,4]triazin-2-yl)pyridine-3-sulfonamide], the inhibition at 0.3 µM is 98.5%. `Oc1cc(-c2nc(NCc3ccccn3)c3c(-c4ccccc4)ccn3n2)ccn1` [Example 157, 4-(5-phenyl-4-((pyridin-2-ylmethyl)amino)pyrrolo [2,1-f][1,2,4]triazin-2-yl)pyridin-2-ol]: the inhibition at 0.3 µM came to 94.5%.

As to `NS(=O)(=O)c1cncc(-c2nc(NCc3cccnc3)c3c(-c4ccccc4)ccn3n2)c1` [Example 158, 5-(5-phenyl-4-(pyridin-3-ylmethylamino)pyrrolo [1,2-f][1,2,4]triazin-2-yl)pyridine-3-sulfonamide], the inhibition at 0.3 µM amounted to 92%. On the same count and under the same terms, with `NS(=O)(=O)c1cncc(-c2nc(NCc3ccncc3)c3c(-c4ccccc4)ccn3n2)c1` [Example 159] the figure was 90%; with `NS(=O)(=O)c1cncc(-c2nc(NCc3cnccn3)c3c(-c4ccccc4)ccn3n2)c1` [Example 160, 5-(5-phenyl-4-(pyrazin-2-ylmethylamino)pyrrolo [1,2-f][1,2,4]triazin-2-yl)pyridine-3-sulfonamide], 94.7%.

Regarding `Nc1cncc(-c2nc(NCc3cnccn3)c3c(-c4ccccc4)ccn3n2)c1` [Example 161, 2-(5-aminopyridin-3-yl)-5-phenyl-N-(pyrazin-2-ylmethyl)pyrrolo[1,2-f] [1,2,4]triazin-4-amine], the inhibition at 0.3 µM turned out to be 97.9%. Take `Nc1cncc(-c2nc(NCc3ncccn3)c3c(-c4ccccc4)ccn3n2)c1` [Example 162, 2-(5-aminopyridin-3-yl)-5-phenyl-N-(pyrimidin-2-ylmethyl)pyrrolo[2,1-f] [1,2,4]triazin-4-amine]: the inhibition at 0.3 µM amounted to 95.6%. For `NS(=O)(=O)c1cncc(-c2nc(NCc3nccs3)c3c(-c4ccccc4)ccn3n2)c1` [Example 163, 5-(5-phenyl-4-((thiazol-2-ylmethyl)amino)pyrrolo [2,1-f][1,2,4]triazin-2-yl)pyridine-3-sulfonamide], the inhibition at 0.3 µM was 97.5%. As for `NS(=O)(=O)c1cncc(-c2nc(NCc3ccncn3)c3c(-c4ccccc4)ccn3n2)c1` [Example 165, 5-(5-phenyl-4-((pyrimidin-4-ylmethyl)amino)pyrrolo [2,1-f][1,2,4]triazin-2-yl)pyridine-3-sulfonamide], the inhibition at 0.3 µM is 90.3%.

Consider `NS(=O)(=O)c1cncc(-c2nc(NCc3ccccn3)c3c(-c4ccccc4F)ccn3n2)c1` [Example 166, 5-(5-(2-fluorophenyl)-4-((pyridin-2-ylmethyl)amino)pyrrolo [2,1-f][1,2,4]triazin-2-yl)pyridine-3-sulfonamide], for which the inhibition at 0.3 µM is 98%.

As to `COC(=O)c1ccccc1CNc1nc(-c2cncc(S(N)(=O)=O)c2)nn2ccc(-c3ccccc3)c12` [Example 167, methyl 2-(((5-phenyl-2-(5-sulfamoylpyridin-3-yl)pyrrolo[2,1-f][1,2,4]triazin-4-yl)amino)methyl) benzoate], the inhibition at 0.3 µM was found to be 89.8%.

As to `N#Cc1ccccc1CNc1nc(-c2cncc(S(N)(=O)=O)c2)nn2ccc(-c3ccccc3)c12` [Example 168, 5-(4-((2-cyanobenzyl)amino)-5-phenylpyrrolo [2,1-f][1,2,4]triazin-2-yl)pyridine-3-sulfonamide], the inhibition at 0.3 µM turned out to be 86.8%. Turning to `NC(=O)c1ccccc1CNc1nc(-c2cncc(S(N)(=O)=O)c2)nn2ccc(-c3ccccc3)c12` [Example 169, 2-(((5-phenyl-2-(5-sulfamoylpyridin-3-yl)pyrrolo[2,1-f][1,2,4]triazin-4-yl)amino)methyl) benzamide], the inhibition at 0.3 µM was 62.2%. For the compound `NS(=O)(=O)c1cncc(-c2nc(NC3CCCc4cccnc43)c3c(-c4ccccc4)ccn3n2)c1` (stereo not drawn) [Example 170, 5-(5-phenyl-4-((5,6,7,8-tetrahydroquinolin-8-yl)amino)pyrrolo[2,1-f] [1,2,4]triazin-2-yl)pyridine-3-sulfonamide], the inhibition at 0.3 µM turned out to be 96.4%. With `NS(=O)(=O)c1cncc(-c2nc(NCc3nc4ccccc4s3)c3c(-c4ccccc4)ccn3n2)c1` [Example 172, 5-(4-((benzo[d]thiazol-2-ylmethyl)amino)-5-phenylpyrrolo [2,1-f][1,2,4]triazin-2-yl)pyridine-3-sulfonamide], the inhibition at 0.3 µM stood at 84.3%. The same measure, in the same setting: with `NS(=O)(=O)c1cncc(-c2nc(NCc3ncccc3F)c3c(-c4ccccc4F)ccn3n2)c1` [Example 173, 5-(5-(2-fluorophenyl)-4-(((3-fluoropyridin-2-yl)methyl)amino)pyrrolo [2,1-f][1,2,4]triazin-2-yl)pyridine-3-sulfonamide] the figure was 98.7%; with `Cc1csc(CNc2nc(-c3cncc(S(N)(=O)=O)c3)nn3ccc(-c4ccccc4)c23)n1` [Example 174, 5-(4-(((4-methylthiazol-2-yl)methyl)amino)-5-phenylpyrrolo [2,1-f][1,2,4]triazin-2-yl)pyridine-3-sulfonamide], 97.2%; with `COc1ncc(-c2nc(NCc3nc(C)cs3)c3c(-c4ccccc4)ccn3n2)cc1S(N)(=O)=O` [Example 175, 2-methoxy-5-(4-(((4-methylthiazol-2-yl)methyl)amino)-5-phenylpyrrolo [2,1-f][1,2,4]triazin-2-yl)pyridine-3-sulfonamide], 97.1%. For the compound `Cc1cc(CNc2nc(-c3cncc(S(N)(=O)=O)c3)nn3ccc(-c4ccccc4)c23)no1` [Example 176, 5-(4-(((5-methylisoxazol-3-yl)methyl)amino)-5-phenylpyrrolo [2,1-f][1,2,4]triazin-2-yl)pyridine-3-sulfonamide], the inhibition at 0.3 µM came out at 96%. Consider `CCOC(=O)CC(=O)Nc1cncc(-c2nc(NCc3cnccn3)c3c(-c4ccccc4)ccn3n2)c1` [Example 177, ethyl 3-oxo-3-((5-(5-phenyl-4-((pyrazin-2-ylmethyl)amino)pyrrolo [2,1-f][1,2,4]triazin-2-yl)pyridin-3-yl)amino) propanoate], for which the inhibition at 0.3 µM was found to be 96.7%. Still for that read-out and setting: with `Nc1ccccc1CNc1nc(-c2cncc(S(N)(=O)=O)c2)nn2ccc(-c3ccccc3)c12` [Example 178, 5-(4-((2-aminobenzyl)amino)-5-phenylpyrrolo [2,1-f][1,2,4]triazin-2-yl)pyridine-3-sulfonamide] the figure was 99.2%. Still for that read-out and setting: next, `CS(=O)(=O)Nc1ccccc1CNc1nc(-c2cncc(S(N)(=O)=O)c2)nn2ccc(-c3ccccc3)c12` [Example 179, 5-(4-((2-(methylsulfonamido)benzyl)amino)-5-phenylpyrrolo [2,1-f][1,2,4]triazin-2-yl)pyridine-3-sulfonamide]: 90.1%; `CC(=O)Nc1ccccc1CNc1nc(-c2cncc(S(N)(=O)=O)c2)nn2ccc(-c3ccccc3)c12` [Example 180, N-(2-(((5-phenyl-2-(5-sulfamoylpyridin-3-yl)pyrrolo[2,1-f][1,2,4]triazin-4-yl)amino)methyl)phenyl)acetamide]: 36.9%.
